Details of series [1]: method as in Sica et al., 2005; Burnier and Wuerzner, 2011. Particulars: ref Sica et al., 2005; Burnier and Wuerzner, 2011; cited from earlier work.
The nature of series [2]: Pharmacokinetics of LOS and EXP3174 in non-hypertensive Wistar rats (LC-MS). The conditions noted are these: rat, serum, po; Wistar rats without L-NAME; LOS 10 mg/kg/d ig alone (BLANK + LOS group). It is filed as in vivo. As for the experimental part: All groups were treated for 2 weeks and the blood collection time and methods of serum management were the same as those mentioned above. The LOS and EXP3174 in rat serum were quantitatively determined by a validated LC-MS method. The LC-MS system contained a Q/Exactive Quadrupole/Electrostatic Field Track Well High Resolution Mass Spectrometer (Thermo Fisher Scientific, Waltham, MA, United States) and a Dionex Ultimate 3,000 High-pressure liquid chromatography (Dionex, Subsidiary, CA, United States) system equipped with an electro-spray ionization source. […] The mobile phase included 0.1% formic acid aqueous solution (C) and acetonitrile (D) at a flow rate of 0.3 ml/min. The proportion of phase B in the mobile phase was adjusted from 40 to 5% at 0–2 min, 5% at 2–4 min, 40% at 4–5 min. The parameters of mass spectrometry for each analyte were shown in Supplementary Figure S1 . The collected data were analyzed through Xcalibur 4.1 software. The serum drug concentration data in each sample were obtained by calculation. The pharmacokinetic parameters corresponding to each rat were calculated using the “non-compartmental model” of the “PK solution 2.0TM (Summit Research Services, United States)” pharmacokinetic software. The half-life (t 1/2 ), peak drug concentration (C max), peak time (T max), the area under the plasma concentration-time curve (AUC) from time zero to the time of the last measurable plasma concentration (AUC 0-t ), AUC from time zero to infinity (AUC 0-∞ ), mean residence time (MRT), clearance (CL), apparent volume of distribution (V d ), and relative bioavailability (Frel) were calculated.

Series [3] is described as follows: Pharmacokinetics of LOS and EXP3174 in the hypertension rat model (LC-MS). Particulars: hypertensive rats (L-NAME); for AUC(0-inf) / AUC(0-t) / Cmax / MRT / Tmax / half-life: Wistar, rat, plasma, po, 10 mg/kg/day. It counts as in vivo, Wistar rats. The protocol: All samples were centrifuged at 3,000 rpm for 10 min, and the upper plasma was collected for Liquid Chromatography Mass Spectrometry (LC-MS) analysis. The LOS and EXP3174 in rat serum were quantitatively determined by a validated LC-MS method. The LC-MS system contained a Q/Exactive Quadrupole/Electrostatic Field Track Well High Resolution Mass Spectrometer (Thermo Fisher Scientific, Waltham, MA, United States) and a Dionex Ultimate 3,000 High-pressure liquid chromatography (Dionex, Subsidiary, CA, United States) system equipped with an electro-spray ionization source. […] The mobile phase included 0.1% formic acid aqueous solution (C) and acetonitrile (D) at a flow rate of 0.3 ml/min. The proportion of phase B in the mobile phase was adjusted from 40 to 5% at 0-2 min, 5% at 2-4 min, 40% at 4-5 min. The parameters of mass spectrometry for each analyte were shown in Supplementary Figure S1 . The collected data were analyzed through Xcalibur 4.1 software. The serum drug concentration data in each sample were obtained by calculation. The pharmacokinetic parameters corresponding to each rat were calculated using the “non-compartmental model” of the “PK solution 2.0TM (Summit Research Services, United States)” pharmacokinetic software. The half-life (t 1/2 ), peak drug concentration (C max), peak time (T max), the area under the plasma concentration-time curve (AUC) from time zero to the time of the last measurable plasma concentration (AUC 0-t ), AUC from time zero to infinity (AUC 0-∞ ), mean residence time (MRT), clearance (CL), apparent volume of distribution (V d ), and relative bioavailability (Frel) were calculated.

Series [4] relates to CYP3A4. The arrangement: method as in Li et al. (2012). Particulars: Rat hepatic microsomes; ref Li et al. (2012); cited from earlier work.
For series [5], the system named is CYP3A4. The conditions noted are these: Sprague-Dawley rats; ref Qin et al. (2013); cited from earlier work.
The subject of series [6] is P-gp. The arrangement: method as in Wan et al. (2010). Particulars: HepG2; ref Wan et al. (2010); cited from earlier work.
For series [7], the target named is CYP3A4 (Homo sapiens, UniProt P08684). The arrangement: method as in Wan et al. (2010). Particulars: HepG2; ref Wan et al. (2010); cited from earlier work.
The subject of series [8] is P-gp. The conditions noted are these: Sprague-Dawley rats; ref Qin et al. (2013); cited from earlier work.
The mark [9] stands for this setting: LOS 10 mg/kg/d ig + SMI 2 ml/kg/d tail vein (SMI-L+LOS group).
[10] abbreviates: LOS 10 mg/kg/d ig + SMI 4 ml/kg/d tail vein (SMI-M+LOS group).
[11] abbreviates: LOS 10 mg/kg/d ig + SMI 6 ml/kg/d tail vein (SMI-H+LOS group).
The mark [12] stands for this setting: LOS 10 mg/kg/d ig alone (LOS group).

Each structure is given as a SMILES string. Like-named read-outs stand apart in the source and are kept apart here.

CYP3A4 (Homo sapiens, UniProt P08684), sequence (P08684 whole entry): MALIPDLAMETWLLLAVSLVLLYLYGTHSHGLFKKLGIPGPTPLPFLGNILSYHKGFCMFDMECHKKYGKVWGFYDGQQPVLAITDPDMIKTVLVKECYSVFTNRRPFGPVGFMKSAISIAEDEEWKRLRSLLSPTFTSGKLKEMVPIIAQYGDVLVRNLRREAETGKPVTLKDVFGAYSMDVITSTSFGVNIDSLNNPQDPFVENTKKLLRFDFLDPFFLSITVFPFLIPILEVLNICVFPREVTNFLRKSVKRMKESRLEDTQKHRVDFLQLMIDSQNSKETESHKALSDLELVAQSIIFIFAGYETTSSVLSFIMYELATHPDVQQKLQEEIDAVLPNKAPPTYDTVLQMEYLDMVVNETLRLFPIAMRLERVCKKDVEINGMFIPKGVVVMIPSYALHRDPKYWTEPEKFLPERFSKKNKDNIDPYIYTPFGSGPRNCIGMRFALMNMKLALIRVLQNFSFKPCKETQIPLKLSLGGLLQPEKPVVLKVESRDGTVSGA

For the compound `CCCCc1nc(Cl)c(C(=O)O)n1Cc1ccc(-c2ccccc2-c2nn[nH]n2)cc1` [EXP3174, losartan carboxylic acid], the “antihypertensive potency relative to losartan” value in series [1] is on record as 10–40 times. Also, in series [2], the AUC(0-inf) is 1170 ng·h/mL, the AUC(0-t) was determined as 1020 ng·h/mL, the Cmax was 115 ± 12.1 ng/mL and the MRT was determined as 9.77 ± 0.26 h. Also, in series [2], the time of peak concentration (Tmax) is 5.33 ± 1.03 h and the half-life was 6.5 ± 1.52 h. In series [3] (setting [9]), the total exposure AUC(0-inf) amounted to 1280 ng·h/mL, the AUC(0-t) turned out to be 1180 ng·h/mL, the Cmax stood at 133 ± 42.8 ng/mL and the MRT worked out at 9.5 ± 1.8 h. Besides, in series [3] (setting [9]), the Tmax turned out to be 4.8 ± 1.1 h, the half-life was 6.67 ± 1.34 h, the CL was 23,408.16 ± 11,602.26 ml/h/kg and the Vd is 226,676.52 ± 129,635.61 ml/kg. Further, in series [3] (setting [10]), the AUC(0-inf) is 1500 ng·h/mL, the AUC(0-t) came out at 1380 ng·h/mL, the Cmax was determined as 123 ± 44.6 ng/mL and the MRT turned out to be 11.4 ± 1.62 h. For the same compound, in series [3] (setting [10]), the Tmax amounted to 5.33 ± 1.03 h, the half-life is 6.59 ± 1.44 h, the CL was 17,618.36 ± 4346.02 ml/h/kg and the Vd is on record as 159,469.35 ± 65,037.84 ml/kg. In series [3] (setting [11]), the AUC(0-inf) is 1380 ng·h/mL, the Cmax came out at 81.2 ± 8.14 ng/mL, the MRT worked out at 13.3 ± 2.66 h and the Tmax is 6 ± 1.26 h. Besides, in series [3] (setting [11]), the half-life is 7.31 ± 1.62 h, the CL is listed as 18,577.68 ± 3,249.85 ml/h/kg and the Vd was 188,473.60 ± 36,260.16 ml/kg. In addition, in series [3] (setting [12]), the AUC(0-inf) was determined as 1300 ng·h/mL, the AUC(0-t) was 1160 ng·h/mL, the Cmax came to 119 ± 36.4 ng/mL and the MRT was found to be 11.2 ± 2.34 h. Moreover, in series [3] (setting [12]), the Tmax was 4.33 ± 0.82 h, the half-life was 6.76 ± 1.45 h, the CL is recorded as 19,842.49 ± 3,602.55 ml/h/kg and the Vd was 175,713.60 ± 57,295.84 ml/kg.
As to `COc1cc2c(c(OC)c1OC)-c1c(cc(OC)c(OC)c1OC)C[C@H](C)[C@H](C)C2` [Schisandrin A], in the series with CYP3A4 [4], the “Effects on CYP3A4” value is reported as “Inhibition”.
For `COc1cc2c(c(OC)c1OC)-c1c(cc(OC)c(OC)c1OC)C[C@](C)(O)[C@@H](C)C2` [schisandrol A], the “Effects on CYP3A4” value in the series on CYP3A4 [5] and at CYP3A4 [7] was “Inhibition” throughout. In addition, the “Effects on P-Gp” value with P-gp [6] and with P-gp [8] was “Inhibition” throughout.

For orientation: AUC(0-inf) means the area under the concentration-time curve extrapolated to infinity. One may read the AUC(0-t) as exposure summed from dosing to a finite time, without extrapolation to infinity. What is called Cmax is the highest concentration seen after dosing. Broadly, the MRT is a mean duration of stay, worked out from the concentration-time curve. By Tmax is commonly meant the time at which the peak concentration occurs. One may read the half-life as the time needed for the level to fall by half in the phase considered.

The record behind these values is PMC9065348 (Frontiers in Pharmacology, 2022).
